The source of these data is patent US4181728A, “Spiro-polycyclicimidazolidinedione derivatives” (Pfizer Inc., priority 1978, dated 1980).

Test [1] has as its target T1, aldose reductase enzyme obtained from calf lens (Bos taurus, UniProt P16116).
T1 construct: partially purified aldose reductase enzyme obtained from calf lens; from tissue; host or cells: calf lens
Briefly: Aldose reductase inhibitory activity (partially purified calf lens enzyme). It counts as biochemical. The following applies: 10^-4 M, * = average of 2 or 3 tests (Examples 2, 5, 6, 7). As to the method: The Examples of spiro-polycyclicimidazolidinedione derivatives prepared above were tested for their ability to reduce or inhibit aldose reductase enzyme activity, following the procedure described in U.S. Pat. No. 3,821,383 and based on the procedure of Hayman et. al., Journal of Biological Chemistry, 240, 877 (1965). The substrate employed was partially purified aldose reductase enzyme obtained from calf lens. The drug was tested at a concentration of 10^-4 M and optionally at lower concentrations and the results are expressed as percent inhibition of enzyme activity.
*This number represents an average of 2 or 3 tests.

The subject of test [2] is sorbitol accumulation in the sciatic nerve. Briefly: Inhibition of sorbitol accumulation in the sciatic nerve of streptozotocinized (diabetic) rats. The following applies: measured 27 h after induction, vs untreated. The class given is in vivo, rat. As to the method:
Some of the Examples of spiro-polycyclicimidazolidinedione derivatives prepared above were also tested for their ability to reduce or inhibit sorbitol accumulation in the sciatic nerve of streptozotocinized (i.e., diabetic) rats by the procedure essentially described in U.S. Pat. No. 3,821,383. In the present study, the amount of sorbitol accumulation in the sciatic nerves was measured 27 hours after induction of diabetes. The compounds were administered orally at the dose level indicated at 4, 8 and 24 hours following the administration of streptozotocin. The results obtained in this manner are presented in terms of percent inhibition (%) afforded by the test compound as compared to the case where no compound was administered (i.e., the untreated animal where sorbitol levels normally rise from approximately […] tissue to as high as 400 mM/g tissue in the 27-hour test period).

[3] abbreviates: 5.0 mg/kg oral at 4, 8 and 24 h after streptozotocin.
[4] abbreviates: 1.5 mg/kg oral at 4, 8 and 24 h after streptozotocin.

Usually inhibition stands for the share of the control response that was lost under treatment. A high value points to strong suppression.

In test [1], `O=C1NC(=O)C2(CCOc3c2cc(Cl)c2ccccc32)N1` (centres unmarked) [Example 5, 5',6'-dihydro-6'-chloro-spiro[imidazolidine-4,4'-[4'H]-naphtho[1,2-b]pyran]-2,5-dione] showed an inhibition at 100 µM of 78%. The “% Inhibition of sorbitol accumulation” value in test [2] (setting [3]) is given as 58%.
`O=C1NC(=O)C2(CCc3cccc4cccc2c34)N1` (centres unmarked) [Example 8, 2',3'-dihydro-spiro[imidazolidine-4,1'-phenalene]-2,5-dione] gave an inhibition at 100 µM in test [1] of 71%. For the same compound, the “% Inhibition of sorbitol accumulation” value in test [2] (setting [3]) came to 28%.
`O=C1NC(=O)C2(CCOc3c2ccc2ccccc32)N1` (centres unmarked) [Example 9, 2',3'-dihydro-spiro[imidazolidine-4,4'-[4'H]-naphtho[1,2-b]pyran]-2,5-dione]: testing at 100 µM in test [1] gave an inhibition of 72%. Moreover, in test [2] (setting [4]), the “% Inhibition of sorbitol accumulation” value is recorded as 30%.
In test [1], `COc1cccc2c3c(ccc12)C1(CCO3)NC(=O)NC1=O` (centres unmarked) [Example 2, 2',3'-dihydro-7'-methoxy-spiro[imidazolidine-4,4'-[4'H]-naphtho[1,2-b]pyran]-2,5-dione] showed an inhibition at 100 µM of 94%. In test [2] (setting [4]), the “% Inhibition of sorbitol accumulation” value is “no effect”.
In turn, `O=C1NC(=O)C2(CCCc3c2ccc2ccccc32)N1` (centres unmarked) [Example 7, 1',2',3',4'-tetrahydro-spiro[imidazolidine-4,1'-phenanthrene]-2,5-dione] returned an inhibition at 100 µM in test [1] of 86%. Further, the “% Inhibition of sorbitol accumulation” value in test [2] (setting [4]) is on record as “no effect”.
For `O=C1NC(=O)C2(CCOc3ccc4ccccc4c32)N1` (centres unmarked) [Example 6, 2',3'-dihydro-spiro[imidazolidine-4,4'-[4'H]-naphtho[2,1-b]pyran]-2,5-dione], in that order: 78% and “no effect”.
`O=C1NC(=O)C2(CCSc3ccc4ccccc4c32)N1` (centres unmarked) [Example 1, 2',3'-dihydro-spiro[imidazolidine-4,4'-[4'H]-naphtho[2,1-b]thiopyran]-2,5-dione] gave an inhibition at 100 µM in test [1] of 59%.
In the case of `O=C1NC(=O)C2(CCSc3c2ccc2ccccc32)N1` (centres unmarked) [Example 4, 2',3'-dihydro-spiro[imidazolidine-4,4'-[4'H]-naphtho[1,2-b]thiopyran]-2,5-dione], testing at 100 µM in test [1] gave an inhibition of 100%. Further, the “% Inhibition of sorbitol accumulation” value in test [2] (setting [4]) is on record as 32%.
In test [1], `O=C1NC(=O)C2(CCCc3ccc4ccccc4c32)N1` (centres unmarked) [Example 10, 1',2',3',4'-tetrahydro-spiro[imidazolidine-4,4'-phenanthrene]-2,5-dione] displayed an inhibition at 100 µM of 60%.
On the same count and under the same terms, under `O=C1NC(=O)C2(CCCc3ccc4cc5ccccc5cc4c32)N1` (centres unmarked) [Example 3, 1',2',3',4'-tetrahydro-spiro[imidazolidine-4,1'-benz[a]anthracene]-2,5-dione] stands 26%.
